According to ChEMBL document CHEMBL3808342, “Discovery and optimization of a novel series of highly CNS penetrant M4 PAMs based on a 5,6-dimethyl-4-(piperidin-1-yl)thieno[2,3-d]pyrimidine core” (Bioorg Med Chem Lett, 2016):
pEC50, pIC50: −log10 of the molar value.

What was measured:
[1] = molecular target: T1, Muscarinic acetylcholine receptor M4 (Homo sapiens) (UniProt P08173); assay: Positive allosteric modulation of human M4 receptor expressed in CHO cells coexpressing Gqi5 by calcium mobilization assay relative to acetylcholine; type: functional, cell-based
T1 sequence (whole entry): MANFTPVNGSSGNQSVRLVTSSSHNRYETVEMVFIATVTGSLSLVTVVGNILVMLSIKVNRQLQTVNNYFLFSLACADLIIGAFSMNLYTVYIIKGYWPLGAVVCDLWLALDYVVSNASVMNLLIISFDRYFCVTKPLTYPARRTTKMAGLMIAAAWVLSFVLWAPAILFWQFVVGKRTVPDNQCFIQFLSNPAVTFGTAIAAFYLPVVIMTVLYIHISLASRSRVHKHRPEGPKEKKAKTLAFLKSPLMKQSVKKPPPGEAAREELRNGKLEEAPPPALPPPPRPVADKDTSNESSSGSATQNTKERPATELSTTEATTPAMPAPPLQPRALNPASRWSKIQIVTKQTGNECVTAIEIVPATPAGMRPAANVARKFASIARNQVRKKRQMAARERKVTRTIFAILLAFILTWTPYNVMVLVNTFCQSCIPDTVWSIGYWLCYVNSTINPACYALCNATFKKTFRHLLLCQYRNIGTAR

[2] = molecular target: T2, Muscarinic acetylcholine receptor M4 (Homo sapiens, UniProt P08173); assay: Positive allosteric modulation of human M4 receptor expressed in CHO cells coexpressing Gqi5 by calcium mobilization assay; type: functional, cell-based; conditions: read-out: EC50
T2 sequence (P08173 whole entry): T1 sequence (whole entry)

[3] = Ratio of brain to plasma partition coefficient in Sprague-Dawley rat at 0.2 to 0.25 mg/kg, iv administered as cassette dose after 0.25 hrs; type: ADME, organism-based; conditions: for Kp: brain, 0.25 h; for Kp at 0.25 h: Sprague-Dawley, brain and plasma
[4] = Ratio of unbound brain-to-plasma concentration in Sprague-Dawley rat at 0.2 to 0.25 mg/kg, iv administered as cassette dose after 0.25 hrs; type: ADME, organism-based
[5] = test system: Plasma; assay: (§1) Fraction unbound in rat plasma; type: ADME, cell-free
[6] = molecular target: Muscarinic acetylcholine receptor M3 (Homo sapiens, UniProt P20309); assay: Positive allosteric modulation of human M3
[7] = Fraction unbound in human plasma; type: ADME, cell-free
[8] = test system: Brain; assay: Fraction unbound in rat brain homogenate; type: ADME, tissue-based
[9] = molecular target: T3, Muscarinic acetylcholine receptor M4 (Rattus norvegicus, UniProt P08485); assay: Positive allosteric modulation of rat M4 receptor expressed in CHO cells coexpressing Gqi5 by calcium mobilization assay; type: functional, cell-based
T3 sequence (P08485 whole entry): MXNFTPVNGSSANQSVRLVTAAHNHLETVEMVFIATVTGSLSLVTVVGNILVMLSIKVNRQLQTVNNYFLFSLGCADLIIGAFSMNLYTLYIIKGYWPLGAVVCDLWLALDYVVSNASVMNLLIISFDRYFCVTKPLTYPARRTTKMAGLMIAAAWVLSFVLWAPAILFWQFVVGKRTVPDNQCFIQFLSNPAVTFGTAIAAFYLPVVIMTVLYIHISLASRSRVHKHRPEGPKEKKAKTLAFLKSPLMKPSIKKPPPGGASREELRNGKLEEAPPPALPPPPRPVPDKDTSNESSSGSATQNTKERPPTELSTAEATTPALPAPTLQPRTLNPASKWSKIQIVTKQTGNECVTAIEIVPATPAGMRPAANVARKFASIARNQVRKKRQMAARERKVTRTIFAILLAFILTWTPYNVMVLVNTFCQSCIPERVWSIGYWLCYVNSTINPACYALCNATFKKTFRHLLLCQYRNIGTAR

[10] = molecular target: T4, Muscarinic acetylcholine receptor M4 (Rattus norvegicus) (UniProt P08485); assay: Positive allosteric modulation of rat M4 receptor expressed in CHO cells coexpressing Gqi5 by calcium mobilization assay relative to acetylcholine; type: functional, cell-based
T4 sequence (whole entry): T3 sequence (P08485 whole entry)

[11] = molecular target: T5, Muscarinic acetylcholine receptor M5 (Homo sapiens, UniProt P08912); assay: Positive allosteric modulation of human M5 receptor expressed in CHOK1 cells by calcium mobilization assay; type: functional, cell-based, CHO-K1
T5 sequence (P08912 whole entry): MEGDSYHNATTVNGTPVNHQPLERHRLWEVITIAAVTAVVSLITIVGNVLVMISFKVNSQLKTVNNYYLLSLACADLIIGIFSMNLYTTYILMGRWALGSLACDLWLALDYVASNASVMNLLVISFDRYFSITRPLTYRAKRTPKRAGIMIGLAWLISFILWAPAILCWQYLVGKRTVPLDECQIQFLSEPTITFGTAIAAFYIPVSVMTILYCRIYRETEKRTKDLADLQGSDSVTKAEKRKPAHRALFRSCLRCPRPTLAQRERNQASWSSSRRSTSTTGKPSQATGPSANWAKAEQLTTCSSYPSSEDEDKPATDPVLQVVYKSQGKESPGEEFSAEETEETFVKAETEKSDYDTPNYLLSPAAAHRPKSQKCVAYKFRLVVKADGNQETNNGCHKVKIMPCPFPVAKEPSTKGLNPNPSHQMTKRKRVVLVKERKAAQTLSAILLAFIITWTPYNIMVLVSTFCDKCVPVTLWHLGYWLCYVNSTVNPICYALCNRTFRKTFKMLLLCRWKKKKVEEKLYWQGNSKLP

[12] = molecular target: T6, Muscarinic acetylcholine receptor M1 (Homo sapiens, UniProt P11229); assay: Positive allosteric modulation of human M1 receptor expressed in CHOK1 cells by calcium mobilization assay
T6 sequence (P11229 whole entry): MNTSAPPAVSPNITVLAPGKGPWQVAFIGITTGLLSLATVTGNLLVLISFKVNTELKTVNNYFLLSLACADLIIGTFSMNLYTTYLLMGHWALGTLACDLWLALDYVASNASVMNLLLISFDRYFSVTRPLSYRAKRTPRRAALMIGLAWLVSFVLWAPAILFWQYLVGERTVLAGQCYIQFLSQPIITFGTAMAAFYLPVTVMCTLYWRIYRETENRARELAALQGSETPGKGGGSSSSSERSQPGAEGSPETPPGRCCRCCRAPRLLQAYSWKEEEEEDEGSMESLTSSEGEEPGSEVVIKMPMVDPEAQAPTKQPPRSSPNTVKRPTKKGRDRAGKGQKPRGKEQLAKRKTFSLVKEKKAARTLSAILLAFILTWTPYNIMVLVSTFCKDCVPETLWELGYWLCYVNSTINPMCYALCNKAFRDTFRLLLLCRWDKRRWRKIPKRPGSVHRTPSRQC

[13] = molecular target: T7, Muscarinic acetylcholine receptor M2 (Homo sapiens, UniProt P08172); assay: Positive allosteric modulation of human M2
T7 sequence (P08172 whole entry): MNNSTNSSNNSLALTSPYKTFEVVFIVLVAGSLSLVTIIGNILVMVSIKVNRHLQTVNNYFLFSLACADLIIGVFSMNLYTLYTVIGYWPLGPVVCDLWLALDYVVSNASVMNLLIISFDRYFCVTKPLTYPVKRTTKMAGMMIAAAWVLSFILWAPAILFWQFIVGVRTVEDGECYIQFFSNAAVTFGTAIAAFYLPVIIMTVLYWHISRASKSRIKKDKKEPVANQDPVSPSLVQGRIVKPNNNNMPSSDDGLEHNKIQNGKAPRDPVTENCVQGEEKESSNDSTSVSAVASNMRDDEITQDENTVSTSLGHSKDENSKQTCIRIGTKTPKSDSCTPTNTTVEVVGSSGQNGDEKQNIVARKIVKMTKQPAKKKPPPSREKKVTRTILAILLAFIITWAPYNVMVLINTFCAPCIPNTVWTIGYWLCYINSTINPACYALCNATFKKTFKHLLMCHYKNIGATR

[14] = Drug metabolism in human hepatic microsomes assessed as compound oxidation; type: ADME, Liver, Microsome
[15] = Drug metabolism in rat hepatic microsomes assessed as hydroxylation of 5,6-dimethyl moiety; type: ADME, Liver, Microsome
[16] = as §1; type: ADME, cell-free
[17] = molecular target: T2, Muscarinic acetylcholine receptor M4; assay: Antagonist activity at human M4 receptor expressed in CHO cells coexpressing Gqi5 by calcium mobilization assay; type: functional, cell-based
[18] = molecular target: T1, Muscarinic acetylcholine receptor M4 (Homo sapiens); assay: Antagonist activity at human M4 receptor expressed in CHO cells coexpressing Gqi5 assessed as acetylcholine-induced calcium mobilization; type: functional, cell-based; design: scale not given: the % may be the effect or the level left

Muscarinic acetylcholine receptor M3, sequence (P20309 whole entry): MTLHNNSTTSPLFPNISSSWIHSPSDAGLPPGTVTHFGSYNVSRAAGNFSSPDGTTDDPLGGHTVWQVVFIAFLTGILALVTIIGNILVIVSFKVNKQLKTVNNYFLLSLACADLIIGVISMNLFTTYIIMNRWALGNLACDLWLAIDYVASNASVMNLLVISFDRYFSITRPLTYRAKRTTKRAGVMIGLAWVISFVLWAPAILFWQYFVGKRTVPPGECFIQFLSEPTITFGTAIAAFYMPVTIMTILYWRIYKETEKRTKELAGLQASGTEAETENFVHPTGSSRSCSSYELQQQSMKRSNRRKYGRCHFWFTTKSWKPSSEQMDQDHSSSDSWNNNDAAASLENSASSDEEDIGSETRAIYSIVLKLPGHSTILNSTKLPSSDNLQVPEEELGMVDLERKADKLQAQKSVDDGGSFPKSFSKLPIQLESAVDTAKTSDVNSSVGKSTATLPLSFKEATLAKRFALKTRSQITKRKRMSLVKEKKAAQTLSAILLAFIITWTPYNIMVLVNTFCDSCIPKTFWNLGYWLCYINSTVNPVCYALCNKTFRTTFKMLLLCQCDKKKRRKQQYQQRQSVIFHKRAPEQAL

| Compound | %max [1] | pEC50 [2] | Kp [3] | K(p,uu,brain) [4] | further results |
| --- | --- | --- | --- | --- | --- |
| Cc1sc2ncnc(N3CCC(C(=O)Nc4ccc(N5CCNC5=O)cc4)CC3)c2c1C | 40% | 5.21 | – | – | – |
| Cc1ccc(OC2CCN(c3cc(C)nc4ccc(F)cc34)CC2)cn1 | 64% | 6.16 | 21.4 | 18.2 | – |
| Cc1ccc(OC2CCN(c3ncnc4ccc(F)cc34)CC2)cn1 | 62% | 6.22 | 11.1 | > 10 | Fu [5]: 0.02; pEC50 [6]: < 5.00; Fu [7]: 0.16; Fu [8]: 0.03; pEC50 [9]: 6.02; %max [10]: 57%; pEC50 [11]: < 5.00; pEC50 [12]: < 5.00; pEC50 [13]: < 5.00 |
| Cc1ccc(OC2CCN(c3ncnc4sc(C)c(C)c34)CC2)cn1 | 65% | 6.22 | 1.16 | 0.74 | Drug metabolism [14]: metabolite_detected; Drug metabolism [15]: metabolite_detected |
| Cc1sc2ncnc(N3CCC(C(=O)Nc4cc(Cl)ccc4Cl)CC3)c2c1C | 69% | 5.42 | – | – | – |
| Cc1sc2ncnc(N3CCC(C(=O)N4CCCC4)CC3)c2c1C | 68% | 5.96 | 0.45 | 0.45 | Fu [5]: 0.04; Fu [7]: 0.06 |
| Cc1sc2ncnc(N3CCC(C(=O)Nc4ccc(F)cc4Cl)CC3)c2c1C | 55% | 5.80 | – | – | – |
| Cc1ccc2ncnc(N3CCC(Oc4ccc(C)nc4)CC3)c2c1 | 49% | 5.92 | 0.94 | 0.62 | – |
| Cc1sc2ncnc(N3CCC(C(=O)N4CCCc5cc(S(C)(=O)=O)ccc54)CC3)c2c1C | 69% | 6.02 | – | – | – |
| Cc1sc2ncnc(N3CCC(C(=O)N4CCOCC4)CC3)c2c1C | 65% | 5.77 | – | – | – |
| Cc1sc2ncnc(N3CCC(C(=O)N4CCCC(F)(F)C4)CC3)c2c1C | 60% | 5.72 | – | – | – |
| Cc1sc2ncnc(N3CCC(Oc4ccc5c(c4)CCO5)CC3)c2c1C | 74% | 5.64 | 1.25 | 1.38 | – |
| Cc1sc2ncnc(N3CCC(C(=O)N4CC[C@H](F)C4)CC3)c2c1C | 79% | 6.01 | 0.17 | 0.12 | Fu [5]: 0.12; Fu [7]: 0.05 |
| Cc1sc2ncnc(N3CCC(Oc4ccc(Cl)nc4)CC3)c2c1C | 64% | 5.37 | 2.56 | 0.17 | – |
| Cc1sc2ncnc(N3CCC(C(=O)N4CCSCC4)CC3)c2c1C | 75% | 6.09 | – | – | – |
| Cc1ncc(OC2CCN(c3ncnc4sc(C)c(C)c34)CC2)cn1 | 60% | 5.36 | 1.77 | 0.65 | – |
| Cc1sc2ncnc(N3CCC(C(N)=O)CC3)c2c1C | 25% | < 5.00 | – | – | – |
| Cc1sc2ncnc(N3CCC(C(=O)Nc4ccc(S(C)(=O)=O)cc4)CC3)c2c1C | 62% | 6.07 | – | – | – |
| CNC(=O)c1ccc(NC(=O)C2CCN(c3ncnc4sc(C)c(C)c34)CC2)cc1 | 70% | 6.24 | – | – | – |
| Cc1sc2ncnc(N3CCC(C(=O)NCc4ccc(S(N)(=O)=O)cc4)CC3)c2c1C | 67% | 5.64 | – | – | – |
| CCCCN(c1ccc(C)nc1)C1CCN(c2ncnc3sc(C)c(C)c23)CC1 | – | – | – | – | fraction unbound [16]: > 0.1; Fu [7]: > 0.1; Kp at 0.25 h [3]: 0.2; pIC50 [17]: 5.82; Activity [18]: 8.7% |
| Cc1ccc(OC2CCN(c3nc(C)nn4ccc(C)c34)CC2)cn1 | 58% | 5.96 | 1.42 | 1.95 | – |
| Cc1sc2ncnc(N3CCC(Oc4ccc(F)nc4)CC3)c2c1C | 68% | 5.74 | 2.8 | 0.34 | – |
| Cc1sc2ncnc(N3CCC(C(=O)Nc4ccc(C(N)=O)cc4)CC3)c2c1C | 56% | 6.41 | – | – | – |
| CCCN(c1ccc(C)nc1)C1CCN(c2ncnc3sc(C)c(C)c23)CC1 | – | – | – | – | fraction unbound [16]: > 0.1; Fu [7]: > 0.1; Kp at 0.25 h [3]: 0.2; pIC50 [17]: 5.62; Activity [18]: 9.3% |
